Assay: Inhibition of NLRP3 inflammasome in mouse BMDMs assessed as reduction in pyroptosis activity preincubated with LPS for 4 hrs followed by compound addition for 30 mins prior to nigericin addition and measured after 1 hr by ELISA

Structure (SMILES) | IC50
COc1c(O)cc2c(c1C)C(=O)C=C1[C@@]2(C)CC[C@@]2(C)[C@@H]3C[C@@H](C)C(=O)[C@@H](O)[C@]3(C)CC[C@]12C | 2210 nM
CC1=C(O)C(=O)C=C2C1=CC=C1[C@@]2(C)[C@@H](Br)C[C@@]2(C)[C@@H]3C[C@@H](C)C(=O)C[C@]3(C)CC[C@]12C | 130 nM

From BindingDB's records for PubMed 37639823 (Shenyang Pharmaceutical University)
